Test results: patent US8563729B2, “Thienopyridone derivatives as AMP-activated protein kinase (AMPK) activators” (Merck Patent GmbH, priority 2008, dated 2013)

Assays:
[1] = biological target: T1, AMPK protein (recombinant α1β1γ2) (Homo sapiens, UniProt Q13131+Q9Y478); assay: AMPK enzymatic activity (Delfia, AMARA peptide substrate); type: biochemical; details: compound 30 μM vs AMP 30 μM; 125 μM ATP; ratio 90% or higher = direct activator
T1 construct: made in house; host or cells: E. coli
Method: The following biological test allows the determination of the efficacy of such compounds of formula (I) onto AMPK protein (recombinant α1β1γ2).
Human recombinant AMPK enzyme was expressed in E. Coli and was reactivated in vitro by LKB1 prior to enzyme activity determination.
AMPK enzyme activities were assayed by using A Delfia technology. AMPK enzyme activities were carried out in microtiter plates (50 mM Hepes buffer, pH 7.4 with 125 μM ATP respectively) in the presence of a synthetic peptide substrate (AMARAASAAALARRR, the “AMARA” peptide) and activators in serial dilutions. Reactions were initiated by the addition of AMPK (50-100 ng). Following mixing, the plates were incubated for 30 min at room temperature. Enzyme activity was assayed by using an anti-phosphoserine antibody to measure the quantity of phosphate incorporated into the AMARAA.
(§1) N°: Number of the molecule
Activity: Ratio between the % of control (basal activity) of compound of formula (I) at 30 μM and the % of control (basal activity) of AMP (natural substrate) at 30 μM.
Compounds of formula (I) in the table II are considered as direct activator of AMPK if the ratio is 90% or higher.

H-2 Kb cells = assay: Glucose uptake in H-2 Kb cells (in vitro cellular test); type: cell-based, mouse; details: H-2 Kb cells differentiated in muscle, 4 hours incubation, 2-deoxy-D-[1,2 3H] glucose uptake 10 min
Method: Glucose Uptake in H-2 Kb Cells (In Vitro Cellular Test)
The following cellular test allows the determination of the effect of AMPK activators such as compounds of formula (I) onto glucose uptake in a muscle cellular model.
H-1-2 Kb cells derived from heterozygous H-2 Kb tsA58 transgenic mouse were grown in 24-well in plates coated with matrigel and were cultured at 33° C. for 4 days under permissive conditions, as described previously by Fryer et al. (Diabetes 49 (12): 1978, 2000).
For differentiation in muscle, cells were switched to non-permissive culture conditions (37° C. in the absence of interferon-γ). After 3 days, cells were incubated for 4 hours in DMEM 1 g/l glucose culture medium containing different concentrations of the tested molecules. Then glucose uptake was measured by incubating the cells for 10 min with radiolabelled 2-deoxy-D-[1,2 ^3H] glucose. Glucose uptake was terminated by rapidly washing the plates 2 times with ice-cold NaCl 0.9%. The cells were then solubilized in 0.1N NaOH for 30 min. Radioactivity was determined by liquid scintillation counting.
as §1
Activity (table III): Concentration of compound (I) for a glucose uptake equal or higher to glucose uptake induced by insulin (170 nM)
^++ or **concentration of compound (I) ≦10 micro Molar
^+ or *concentration of compound (I) >10 micro Molar

T1 sequence (Q13131 whole entry): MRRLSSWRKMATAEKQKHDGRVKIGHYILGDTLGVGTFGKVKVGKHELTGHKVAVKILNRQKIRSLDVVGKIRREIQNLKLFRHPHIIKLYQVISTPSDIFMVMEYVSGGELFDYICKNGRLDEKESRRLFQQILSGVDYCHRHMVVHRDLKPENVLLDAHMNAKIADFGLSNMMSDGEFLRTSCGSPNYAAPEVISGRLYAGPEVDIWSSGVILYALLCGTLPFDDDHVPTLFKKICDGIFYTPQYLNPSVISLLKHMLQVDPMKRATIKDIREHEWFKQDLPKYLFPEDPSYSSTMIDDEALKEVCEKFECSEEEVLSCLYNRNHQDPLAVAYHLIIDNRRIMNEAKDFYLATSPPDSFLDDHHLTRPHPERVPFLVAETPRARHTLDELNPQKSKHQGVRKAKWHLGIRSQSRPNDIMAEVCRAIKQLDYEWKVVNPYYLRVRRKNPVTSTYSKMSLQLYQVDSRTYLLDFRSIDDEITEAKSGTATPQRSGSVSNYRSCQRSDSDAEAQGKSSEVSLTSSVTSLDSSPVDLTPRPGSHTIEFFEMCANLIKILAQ
T1 sequence (Q9Y478 whole entry): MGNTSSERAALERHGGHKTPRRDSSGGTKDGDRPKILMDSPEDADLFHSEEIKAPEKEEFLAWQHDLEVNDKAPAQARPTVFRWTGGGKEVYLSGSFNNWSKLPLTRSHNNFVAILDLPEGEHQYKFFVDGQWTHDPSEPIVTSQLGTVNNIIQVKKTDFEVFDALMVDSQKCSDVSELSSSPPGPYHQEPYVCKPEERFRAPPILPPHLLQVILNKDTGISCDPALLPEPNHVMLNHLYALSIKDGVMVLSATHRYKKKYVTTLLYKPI
T1 sequence (Q9UGJ0 whole entry partner): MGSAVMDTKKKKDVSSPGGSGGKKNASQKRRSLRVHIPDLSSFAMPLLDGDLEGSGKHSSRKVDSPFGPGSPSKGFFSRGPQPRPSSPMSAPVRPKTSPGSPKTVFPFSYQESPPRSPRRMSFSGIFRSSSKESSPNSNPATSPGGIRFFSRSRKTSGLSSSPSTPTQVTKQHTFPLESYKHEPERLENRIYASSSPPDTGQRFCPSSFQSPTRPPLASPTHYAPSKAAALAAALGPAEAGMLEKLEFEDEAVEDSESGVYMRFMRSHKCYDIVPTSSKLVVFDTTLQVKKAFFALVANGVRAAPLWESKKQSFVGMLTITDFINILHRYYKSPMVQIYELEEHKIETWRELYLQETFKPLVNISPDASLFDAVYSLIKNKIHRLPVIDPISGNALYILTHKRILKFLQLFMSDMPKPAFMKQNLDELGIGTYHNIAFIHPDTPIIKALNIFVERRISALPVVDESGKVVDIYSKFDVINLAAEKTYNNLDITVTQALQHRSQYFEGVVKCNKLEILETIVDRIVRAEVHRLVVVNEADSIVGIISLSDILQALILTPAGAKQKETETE

Row | SMILES | activity: Ratio between the % of control (basal activity) of compound of formula (I) at 30 μM and the % of control (basal activity) of AMP at 30 μM [1] | Activity (table III): Concentration of compound (I) for a glucose uptake equal or higher to glucose uptake induced by insulin (170 nM) (H-2 Kb cells)
1 | Cc1ccc(-c2csc3[nH]c(=O)c(-c4ccccc4)c(O)c23)c(O)c1 [Compound 83, 4-hydroxy-3-(2-hydroxy-4-methylphenyl)-5-phenyl-6,7-dihydro-thieno[2,3-b]pyridin-6-one] | 403% | * (^+ or *concentration of compound (I) >10 micro Molar)
2 | COc1cccc(-c2csc3[nH]c(=O)c(-c4ccccc4)c(O)c23)c1 [Compound 47] | 117% | * (^+ or *concentration of compound (I) >10 micro Molar)
3 | Cc1ccc(-c2c(Cl)sc3[nH]c(=O)c(-c4cccc(C#N)c4)c(O)c23)c(O)c1 [Compound 101] |  | * (^+ or *concentration of compound (I) >10 micro Molar)
4 | O=c1[nH]c2scc(-c3ccc(Cl)cc3)c2c(O)c1-c1ccccc1 [Compound 26] | 128% | * (^+ or *concentration of compound (I) >10 micro Molar)
5 | O=c1[nH]c2sc(Cl)c(-c3cc(F)ccc3O)c2c(O)c1-c1ccccc1 [Compound 108] | 305% | * (^+ or *concentration of compound (I) >10 micro Molar)
6 | COc1cc(-c2c(Cl)sc3[nH]c(=O)c(-c4ccccc4)c(O)c23)ccc1C [Compound 103] |  | * (^+ or *concentration of compound (I) >10 micro Molar)
7 | Cc1ccc(-c2c(Cl)sc3[nH]c(=O)c(-c4ccccc4)c(O)c23)cc1O [Compound 102] |  | ** (^++ or **concentration of compound (I) ≦10 micro Molar)
8 | O=c1[nH]c2scc(-c3cc(F)ccc3O)c2c(O)c1-c1ccccc1 [Compound 75] | 135% | 
9 | O=c1[nH]c2scc(-c3ccc(Br)cc3)c2c(O)c1-c1ccncc1 [Compound 29] | 103% | 
10 | O=c1[nH]c2scc(-c3ccc(F)cc3F)c2c(O)c1-c1ccccc1 [Compound 64] | 109% | 
11 | COc1cc(C)ccc1-c1c(Cl)sc2[nH]c(=O)c(-c3ccccc3)c(O)c12 [Compound 105] | 206% | 
12 | O=c1[nH]c2scc(-c3cccc(F)c3)c2c(O)c1-c1ccccc1 [Compound 49] | 131% | 
13 | O=c1[nH]c2scc(-c3cccc(O)c3)c2c(O)c1-c1ccccc1 [Compound 48] | 109% | 
14 | O=c1[nH]c2scc(-c3ccc(Br)cc3)c2c(O)c1-c1cccnc1 [Compound 28] | 109% | 
15 | O=c1[nH]c2scc(-c3ccc(F)cc3)c2c(O)c1-c1ccc(O)cc1 [Compound 45] | 114% | 
16 | COc1ccc(-c2c(Cl)sc3[nH]c(=O)c(-c4ccccc4)c(O)c23)cc1F [Compound 110] | 121% | 
17 | O=c1[nH]c2scc(-c3ccc(O)cc3F)c2c(O)c1-c1ccccc1 [Compound 62] | 101% | 

The next lines start with results.

Row | activity: Ratio between the % of control (basal activity) of compound of formula (I) at 30 μM and the % of control (basal activity) of AMP at 30 μM [1] | SMILES | Activity (table III): Concentration of compound (I) for a glucose uptake equal or higher to glucose uptake induced by insulin (170 nM) (H-2 Kb cells)
18 | 156% | Cc1ccc(-c2c(Cl)sc3[nH]c(=O)c(-c4cccnc4)c(O)c23)c(O)c1 [Compound 195] | + (^+ or *concentration of compound (I) >10 micro Molar)
19 | 165% | Cc1ccc(-c2c(Cl)sc3[nH]c(=O)c(-c4ccccc4)c(O)c23)cc1C [Compound 196] | ++ (^++ or **concentration of compound (I) ≦10 micro Molar)
20 | 118% | COc1ccc(-c2c(Cl)sc3[nH]c(=O)c(-c4ccccc4)c(O)c23)c(F)c1 [Compound 115] | ** (^++ or **concentration of compound (I) ≦10 micro Molar)
21 | 592% | COc1ccc(-c2c(O)c3c(-c4ccccc4)c(Cl)sc3[nH]c2=O)cn1 [Compound 167] | ++ (^++ or **concentration of compound (I) ≦10 micro Molar)
22 | 174% | O=c1[nH]c2sc(Cl)c(-c3ccccc3)c2c(O)c1-c1cccs1 [Compound 168] | ++ (^++ or **concentration of compound (I) ≦10 micro Molar)
23 | 120% | COc1cccc(-c2c(O)c3c(-c4ccccc4)c(Cl)sc3[nH]c2=O)c1 [Compound 149] | ** (^++ or **concentration of compound (I) ≦10 micro Molar)
24 | 95% | O=c1[nH]c2sc(Cl)c(-c3ccccc3)c2c(O)c1-c1ccc(O)cc1 [Compound 156] | ** (^++ or **concentration of compound (I) ≦10 micro Molar)
25 | 189% | Cc1ccc(-c2csc3[nH]c(=O)c(-c4ccc(F)cc4)c(O)c23)c(O)c1F [Compound 204] | + (^+ or *concentration of compound (I) >10 micro Molar)
26 | 122% | CCOc1cccc(-c2c(Cl)sc3[nH]c(=O)c(-c4ccccc4)c(O)c23)c1 [Compound 127] | * (^+ or *concentration of compound (I) >10 micro Molar)
27 | 183% | Cc1ccc(-c2c(O)c3c(-c4ccc(C)cc4O)c(Cl)sc3[nH]c2=O)cc1 [Compound 194] | ++ (^++ or **concentration of compound (I) ≦10 micro Molar)
28 | 136% | O=c1[nH]c2sc(Cl)c(-c3ccc(F)cc3O)c2c(O)c1-c1ccccc1 [Compound 111] | * (^+ or *concentration of compound (I) >10 micro Molar)
29 | 225% | O=c1[nH]c2sc(Cl)c(-c3ccccc3)c2c(O)c1-c1cccnc1 [Compound 166] | + (^+ or *concentration of compound (I) >10 micro Molar)
30 | 123% | O=c1[nH]c2sc(Cl)c(-c3ccc(F)cc3)c2c(O)c1-c1ccccc1 [Compound 140] | ** (^++ or **concentration of compound (I) ≦10 micro Molar)
31 | 124% | COc1cc(F)ccc1-c1c(Cl)sc2[nH]c(=O)c(-c3ccccc3)c(O)c12 [Compound 187] | + (^+ or *concentration of compound (I) >10 micro Molar)
32 | 130% | CNC(=O)c1ccc(-c2c(O)c3c(-c4ccccc4)c(Cl)sc3[nH]c2=O)cc1 [Compound 150] | 
